The target of series [1] is T1, Cre-ERM^Db (Homo sapiens, UniProt P03372, A350M/G400V/G521S/L346I/M388Q/Y526D).
T1 sequence (P03372 311-547 L346I/A350M/M388Q/G400V/G521S/Y526D limits assumed): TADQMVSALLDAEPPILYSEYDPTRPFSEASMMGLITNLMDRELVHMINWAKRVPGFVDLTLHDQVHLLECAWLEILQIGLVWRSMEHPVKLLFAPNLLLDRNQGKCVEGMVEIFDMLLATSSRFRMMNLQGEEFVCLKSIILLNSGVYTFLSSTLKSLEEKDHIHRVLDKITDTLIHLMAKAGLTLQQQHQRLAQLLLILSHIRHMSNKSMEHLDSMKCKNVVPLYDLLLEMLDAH
Kind of series: X-Gal staining of skin sections of K14-Cre-ERM^Db/RosaR26R mice (Cre-mediated recombination in keratinocytes). The note with it: for Cre-mediated recombination in keratinocytes expressing Cre-ERM^Db: ear treatment 1 mg/day for 5 days, ear sections at day 12; for Cre-mediated recombination in Cre-ERM^Db-expressing keratinocytes of ear skin (distal) / Cre-mediated recombination in Cre-ERM^Db-expressing keratinocytes of tail treated skin: daily tail topical treatment 1 or 0.2 mg for 5 days.
Description: For topical application, DHB, DHBD, HMB or MB dissolved in ethanol at 100 mg/ml was diluted two times in acetone, and 20 μl (1 mg) was daily applied on one cm^2 ear or tail skin for 5 days. For intraperitoneal and gavage administration, compounds dissolved in ethanol were diluted at 10 mg/ml in sunflower oil, and 100 μl were i.p. injected or orally administered to mice.
β-Galactosidase histochemistry was performed on 10 μm-thick frozen section, stained with X-Gal (5-bromo-4-chloro-3-indolyl β-D-galactoside), as described (Brocard et al., 1997).

Series [2] addresses T1, Cre-ERM^Db. How it is done: (§1) F9^+/(LNL) cells (Clifford et al., 1996; Metzger et al., 1995) were coelectroporated with 5 μg pCre-ER expression vectors and 1 μg pPGK-hyg, that had been digested with AseI and PvuII, respectively. Hygromycin-resistant clones were obtained as described (Metzger et al., 1995). To analyse Cre-mediated DNA excision, such clones were plated in 24-well plates at a density of 6×10^3 cells, and grown in the presence of 100 nM all-trans retinoic acid (RA). […] PCR amplification of a segment of the RXRα WT allele (+) and recombined RXRα (Δ) allele from their genomic DNA was carried out using the primers 5′-[…]-3′ (SEQ ID No. 1) and 5′-[…]-3′ (SEQ ID No. 2) (+, ˜300 bp; Δ, ˜350 bp), as described (Feil et al., 1997).

Series [3] is described as follows: Plasma levels after i.p. administration. It is filed as in vivo, mice.
Description: For intraperitoneal and gavage administration, compounds dissolved in ethanol were diluted at 10 mg/ml in sunflower oil, and 100 μl were i.p. injected or orally administered to mice.
Series [4] in a line: Blood hematology and plasma biochemical profile at D19. It is filed as in vivo, mice. Further details: Bilirubin / Uric acid / Iron: unit not given here. The note with it: for ALAT / ALP / ASAT / Albumin / Bilirubin / Cholesterol / Glucose / HCT, hematocrit / HGB, hemoglobin / Iron / K / MCH, mean corpuscular hemoglobin / MCHC, mean corpuscular hemoglobin concentration / MCV, mean corpuscular volume / Magnesium / Na / Phosphorus / Total protein / Triglycerides / Uric acid: 1 mg daily ip D1 to D5, means +/− SD, n = 3.

A short description of series [5]: Liver histology of treated mice. The series is classed as in vivo. The note with it: DHB-treated mice.
The target in series [6] is T2, Cre-ERM^Dc (Homo sapiens, UniProt P03372, A350M/G442Y/G521S/L346I/L466S/M388Q/Y459N/Y526D).
T2 sequence (P03372 311-547 L346I/A350M/M388Q/G442Y/Y459N/L466S/G521S/Y526D limits assumed): T1 sequence (P03372 311-547 L346I/A350M/M388Q/G400V/G521S/Y526D limits assumed) with V90G, G132Y, Y149N, L156S
The experiment in a line: PCR detection of Cre-mediated floxed DNA excision in Cre-ERM^Dc/RXRα^+/(LNL) F9 cells. The series is classed as cell-based. Also on record: Cre recombinase (bacteriophage P1); expressed in transfected cells. The note with it: F9 clone; one of 9 active clones. How it is done:
as §1

For series [7], the target named is T1, Cre-ERM^Db. The experiment in a line: Immunocytochemistry of pCre-ERM^Db-transfected Cos-1 cells (nuclear translocation). It is filed as cell-based, monkey. Also on record: Cre recombinase (bacteriophage P1); expressed in transfected cells; host or cells: Cos-1 cells (transient, pCre-ERM^Db) for A2. The note with it: 3 μM DHB for 24 hrs. How it is done:
(§2) Cos-1 cells grown on Lab-TekII chamber slides (Nalge Nunc International) were transfected with 0.25 μg pCre-ERM expression vectors with Fugene, according to the manufacturer's instruction and treated with vehicle (ethanol) or 3 μM DHB for 24 hrs.

Series [8] deals with T2, Cre-ERM^Dc. The experiment in a line: Immunocytochemistry of Cre-ERM^Dc (translocation from cytoplasm to nucleus). The series is classed as cell-based. Also on record: Cre recombinase (bacteriophage P1); expressed in transfected cells; host or cells: Cos-1 cells (transient, pCre-ERM^Dc) for A3. The note with it: data not shown. How it is done: as §2
Series [9] has as its target T3, Cre-ERM^Da (Homo sapiens, UniProt P03372, A350M/G521S/L346I/M388Q/Y526D).
T3 sequence (P03372 311-547 L346I/A350M/M388Q/G521S/Y526D limits assumed): T1 sequence (P03372 311-547 L346I/A350M/M388Q/G400V/G521S/Y526D limits assumed) with V90G
Kind of series: PCR detection of Cre-mediated floxed DNA excision in Cre-ERM^Da/RXRα^+/(LNL) F9 cells. The series is classed as cell-based, mouse. The note with it: 3 μM DHB, 3 days. Also on record: a fusion protein between Cre and the L346I, A350M, M388Q, G521S, Y526D mutant ERα LBD; Cre recombinase (bacteriophage P1); expressed in transfected cells. How it is done:
as §1

In series [10] the target is T3, Cre-ERM^Da. Kind of series: Immunocytochemistry of pCre-ERM^Da-transfected Cos-1 cells (nuclear translocation). It is filed as cell-based, African green monkey. Further details: a fusion protein between Cre and the L346I, A350M, M388Q, G521S, Y526D mutant ERα LBD; Cre recombinase (bacteriophage P1); expressed in transfected cells; host or cells: Cos-1 cells (transient, pCre-ERM^Da) for A1. The note with it: 3 μM DHB for 24 hrs. On the procedure:
as §2

Positions count from the first letter of the chain named.

On to 4,4′-methoxybenzyl [MB], for which, on Cre-ERM^Db [1], the “Cre-mediated recombination in keratinocytes expressing Cre-ERM^Db” value was “efficiently induced”.

On to `CC(C)(C)C(=O)Oc1ccc(C(=O)C(=O)c2ccc(OC(=O)C(C)(C)C)cc2)cc1` [DHBD, 4,4′-dihydroxylbenzyl dipivalate], for which, at Cre-ERM^Db [1], the “Cre-mediated recombination in Cre-ERM^Db-expressing keratinocytes of ear skin (distal)” value is “induced efficient Cre-mediated recombination” and the “Cre-mediated recombination in Cre-ERM^Db-expressing keratinocytes of tail treated skin” value is recorded as “induced efficient Cre-mediated recombination”.

For the compound `COc1ccc(C(=O)C(=O)c2ccc(O)cc2)cc1` [HMB, 4-hydroxy-4′-methoxybenzyl], the “Cre-mediated recombination in keratinocytes expressing Cre-ERM^Db” value on Cre-ERM^Db [1] is reported as “Induction of Cre-ERM^Db recombinase activity”.

For 4-hydroxytamoxifen [OHT], the “Cre-ERM^Db recombinase activity” value at Cre-ERM^Db [2] is reported as “neither E2 nor OHT induced any recombinase activity”.

For `O=C(C(=O)c1ccc(O)cc1)c1ccc(O)cc1` [DHB, 4,4′-dihydroxybenzil], the “Cre-mediated floxed DNA excision (Cre-ERM^Db recombinase activity)” value at Cre-ERM^Db [2] (F9 clone, ligand 3 μM) is listed as “efficiently induced Cre-mediated floxed DNA excision”. For the same compound, the in vivo clearance entry in [3] (1 mg i.p.) is given as “high”. In addition, the plasma levels entry in series [3] (1 mg i.p., 22 hours after the two-hour sample) was “undetectable”. Further, the concentration at 2 h in series [3] (mouse, plasma, ip, two hours after 1 mg i.p.) was 550 ng/mL. In addition, in series [4] (1 mg daily ip D1 to D5), the “blood hematology and plasma biochemical profiles versus vehicle” value is on record as “did not reveal major difference”. In series [4] (female mice), the ALAT was 27.7 +/− 2.9 U/l, the ALP was 137.0 +/− 14.1 U/l, the ASAT is on record as 143.3 +/− 91.3 U/l and the Albumin was found to be 28.7 ± 0.6 g/L. In series [4] (female mice), the Bilirubin is 1.3 +/− 0.4; the Cholesterol was found to be 1.8 ± 0.1 mmol/L; the Glucose amounted to 18.7 ± 3.5 mmol/L; the “HCT, hematocrit” value is reported as 38.9 +/− 2.3%. In addition, in series [4] (female mice), the “HGB, hemoglobin” value came out at 13.3 ± 0.8 g/dL; the Iron is on record as 25.6 +/− 3.9; the K turned out to be 5.8 ± 0.5 mmol/L; the “MCH, mean corpuscular hemoglobin” value came to 16.1 ± 0.2 pg. Moreover, in series [4] (female mice), the “MCHC, mean corpuscular hemoglobin concentration” value came out at 34.2 ± 0.2 g/dL; the “MCV, mean corpuscular volume” value was determined as 47.2 ± 0.9 fL; the Magnesium is 1.5 ± 0.1 mmol/L; the Na was found to be 152 ± 1.0 mmol/L. In series [4] (female mice), the Phosphorus came to 3.2 ± 0.1 mmol/L, the Total protein was found to be 48 ± 2.6 g/L, the Triglycerides was 0.6 ± 0.1 mmol/L and the Uric acid is given as 193.0 +/− 58.4. Further, in series [4] (male mice), the ALAT was 34.7 +/− 17.5 U/l, the ALP was 114.3 +/− 8.1 U/l, the ASAT is 194 +/− 45.5 U/l and the Albumin was 27.3 ± 3.5 g/L. In addition, in series [4] (male mice), the Bilirubin was 2.0 +/− 0.3; the Cholesterol was found to be 2.2 ± 0.2 mmol/L; the Glucose is 21.4 ± 7.2 mmol/L; the “HCT, hematocrit” value was 40.0 +/− 3.7%. For the same compound, in series [4] (male mice), the “HGB, hemoglobin” value came to 14.0 ± 1.3 g/dL; the Iron is 24.9 +/− 1.4; the K is 5.9 mmol/L; the “MCH, mean corpuscular hemoglobin” value worked out at 16.0 ± 0.2 pg. In addition, in [4] (male mice), the “MCHC, mean corpuscular hemoglobin concentration” value amounted to 34.9 ± 0.1 g/dL; the “MCV, mean corpuscular volume” value was 45.8 ± 0.5 fL; the Magnesium was 1.2 ± 0.2 mmol/L; the Na was found to be 149.7 ± 6.1 mmol/L. For the same compound, in series [4] (male mice), the Phosphorus amounted to 3.6 ± 0.6 mmol/L, the Total protein worked out at 48.3 ± 7.1 g/L, the Triglycerides is 0.8 ± 0.2 mmol/L and the Uric acid is 235.7 +/− 132.5. In addition, in series [5], the “histological defects in liver” value is given as “no histological defects”. On Cre-ERM^Dc [6], the “Cre-ERM^Dc Cre-mediated recombinase activity” value is “strictly DHB-dependent”. Also, at Cre-ERM^Db [1] (1 mg topically to one ear D1 to D5, treated ear sampled at D12), the “β-galactosidase expression in epidermal keratinocytes” value (from here on “β-galactosidase expression”) is given as “most, if not all epidermal keratinocytes from the treated ear expressed β-galactosidase”. Further, on Cre-ERM^Db [1], the “Cre-mediated recombination in Cre-ERM^Db-expressing keratinocytes of ear skin (distal)” value was “induced efficient Cre-mediated recombination”, the “Cre-mediated recombination in Cre-ERM^Db-expressing keratinocytes of tail treated skin” value is recorded as “induced efficient Cre-mediated recombination” and the “Cre-mediated recombination in keratinocytes expressing Cre-ERM^Db” value was “efficiently induced”. The “β-galactosidase expression” value at Cre-ERM^Db [1] (gavage 2 mg/day for 5 days) is “induced”. The “β-galactosidase expression” value at Cre-ERM^Db [1] (intraperitoneal injection 1 mg/day for 5 days) is “induced”. In addition, the “Cre-ERM^Db nuclear translocation” value at Cre-ERM^Db [7] was “induced its nuclear translocation”. The “translocation of Cre-ERM^Dc from the cytoplasm to the nucleus” value on Cre-ERM^Dc [8] is on record as “induced translocation”. Moreover, the “Cre-ERM^Da recombinase activity” value on Cre-ERM^Da [9] is reported as “induced Cre-ERM^Da recombinase activity”. Besides, at Cre-ERM^Da [10], the “Cre-ERM^Da protein nuclear translocation” value is “induced Cre-ERM^Da protein nuclear translocation”.
